# US8513303B2, “Antimicrobial agent” (De Montfort University, priority 2007, dated 2013)
# Columns and labels:
# [1] = tested on: Pseudomonas aeruginosa ATCC 15442; assay: Quantitative suspension test, log10 reduction in bacterial numbers; type: cell-based; settings: 0.5% w/v H2O2; for log reduction: 35° C.
# Excerpt: Neutralisation (nullification of activity) of antimicrobial agents is required to prevent inhibitory concentrations from being transferred to the recovery medium (as discussed, for example, in Russell A. D. (2004) Factors influencing the efficacy of antimicrobial agents in Principles and Practice of Disinfection Preservation and Sterilization, 4th edition, eds Fraise A. P., Lambert P. A. and Maillard J. Y., pages 98-127, Oxford: Blackwell Publishing Ltd. and Russell A. D., Ahonkhai I. and Rogers, D. T. (1979) A review: microbiological applications of the inactivation of antibiotics and other antimicrobial agents. Journal of Applied Bacteriology, 46, 207-245). Thus, samples were removed at desired time points and then any hydrogen peroxide present in the sample was neutralised (i.e. deactivated) using catalase.
# In the examples, catalase from bovine liver was used to neutralise the activity of any remaining hydrogen peroxide (as described in Russell A. D., Ahonkhai I. and Rogers, D. T. (1979), A review: microbiological applications of the inactivation of antibiotics and other antimicrobial agents, Journal of Applied Bacteriology, 46, 207-245) after the appropriate contact time during the experiments. Control experiments were conducted to establish whether the neutraliser nullified the activity of hydrogen peroxide and whether the neutraliser was toxic to the micro-organisms tested.
# The effect of acidic pH conditions (pH 3.47 to 3.54) were investigated with and without hydrogen peroxide and air.
# A quantitative suspension test (as described in Reybrouck G. (1998), The testing of disinfectants, International Biodeterioration and Biodegradation, 41, 269-272) based on the general principles of European quantitative suspension tests (BS EN1040:2005: Chemical disinfectants and antiseptics, Quantitative suspension test for the evaluation of basic bactericidal activity of chemical disinfectants and antiseptics, Test method and requirements (phase 1), London: British Standards Institute; BS EN 1276:1997: Chemical disinfectants and antiseptics, Quantitative suspension test for the evaluation of bactericidal activity of chemical disinfectants and antiseptics used in food, industrial, domestic, and institutional areas, Test method and requirements (phase 2, step 1). London: British Standards Institute) was used to establish the basic level of activity of the catalyst in the absence of organic matter. All tests were performed independently at least three times unless otherwise stated. Low concentrations (0.2-1% w/v) of hydrogen peroxide were used so that increases in antimicrobial activity could be detected if present.
# Bacteria were inoculated into 10 ml volumes of nutrient broth and incubated at 37° C. for 18 to 24 hours at a shaking speed of 100 revolutions/minute. After incubation, the bacteria were washed by centrifugation to remove the nutrient broth; supernatants were discarded and the bacterial pellets were resuspended in sterilised distilled water. 7.5 ml of the washed bacterial suspension was added to 67.5 ml of hydrogen peroxide and/or distilled water to give a specific final concentration (ranging from 0 to 1% w/v—see Tables below) of hydrogen peroxide and approximately 8 log10 colony forming units (CFU)/mL of bacteria. The resultant mixture was stirred magnetically throughout the experiment. Where applicable, 1 g (+/−0.1 g) of either modified PAN fibre (referred to as PAN1 (control) or PAN2 (control)) or catalyst (referred to as PAN1 catalyst or PAN2 catalyst or PAN3 catalyst) comprising PAN fibres was added to the resultant mixture. The experiments were performed with or without air. If air was used, 2.5 L/min was supplied via. a filtered air pump and a sterilised Pyrex gas distribution tube.
# After a specific contact time (see Tables below), 1 ml aliquots were removed from the experimental flask and transferred into 9 ml of neutraliser (catalase) for 5 minutes to inactivate any remaining hydrogen peroxide.
# [2] = tested on: Pseudomonas aeruginosa ATCC 15442; assay: Antimicrobial activity of PAN catalyst under buffered neutral pH conditions at room temperature and 35° C.; type: cell-based; settings: 0.5% w/v H2O2; for log reduction: 35° C., held at neutral pH; for Mean log10 reduction in CFU/ml: room temperature, buffered at neutral pH
# Protocol: Experiments were conducted using the method outlined previously (see testing antimicrobial activity section), but hydrogen peroxide and catalyst were prepared in phosphate buffer solution. Experiments were carried out at room temperature and 35° C.
structure (smiles),measurement,setting,value
"OO [Example H2O2, hydrogen peroxide]",Mean log10 reduction in CFU/ml,"[1]; air 2.5 L/min, 10 min",0.36 (0.13) log10 CFU/ml
same,Mean log10 reduction in CFU/ml,"[1]; air 2.5 L/min, 20 min",0.53 (0.10) log10 CFU/ml
same,Mean log10 reduction in CFU/ml,"[1]; air 2.5 L/min, 30 min",0.55 (0.18) log10 CFU/ml
same,Mean log10 reduction in CFU/ml,"[1]; air 2.5 L/min, 40 min",0.59 (0) log10 CFU/ml
same,Mean log10 reduction in CFU/ml,"[1]; air 2.5 L/min, 50 min",0.72 (0.07) log10 CFU/ml
same,Mean log10 reduction in CFU/ml,"[1]; air 2.5 L/min, 50 min, listed as hydrogen peroxide",0.72 log10 CFU/ml
same,Mean log10 reduction in CFU/ml,"[1]; air 2.5 L/min, 60 min",0.50 (0.09) log10 CFU/ml
same,Mean log10 reduction in CFU/ml,"[1]; air 2.5 L/min, 60 min, listed as hydrogen peroxide",0.5 log10 CFU/ml
same,Mean log10 reduction in CFU/ml,"[1]; no air, 10 min",0.52 (0.12) log10 CFU/ml
same,Mean log10 reduction in CFU/ml,"[1]; no air, 20 min",0.81 (0.24) log10 CFU/ml
same,Mean log10 reduction in CFU/ml,"[1]; no air, 30 min",0.88 (0.25) log10 CFU/ml
same,Mean log10 reduction in CFU/ml,"[1]; no air, 40 min",0.86 (0.32) log10 CFU/ml
same,Mean log10 reduction in CFU/ml,"[1]; no air, 50 min",0.87 (0.28) log10 CFU/ml
same,Mean log10 reduction in CFU/ml,"[1]; no air, 60 min",0.97 (0.22) log10 CFU/ml
same,Mean log10 reduction in CFU/ml,"[1]; no air, 60 min, listed as hydrogen peroxide",0.97 log10 CFU/ml
same,log reduction,"[1]; not buffered, air, 10 min",1.80 log
same,log reduction,"[1]; not buffered, air, 20 min",2.42 log
same,log reduction,"[1]; not buffered, air, 60 min",3.61 log
same,log reduction,"[1]; not buffered, no air, 10 min",2.51 log
same,log reduction,"[1]; not buffered, no air, 40 min",4.15 log
same,log reduction,"[1]; not buffered, no air, 60 min",4.45 log
same,Mean log10 reduction in CFU/ml,"[1]; acidic pH 3.47 to 3.54, air 2.5 L/min, 10 min",2.53 log10 CFU/ml
same,Mean log10 reduction in CFU/ml,"[1]; acidic pH 3.47 to 3.54, air 2.5 L/min, 20 min",3.41 log10 CFU/ml
same,Mean log10 reduction in CFU/ml,"[1]; acidic pH 3.47 to 3.54, air 2.5 L/min, 30 min",4.25 log10 CFU/ml
same,Mean log10 reduction in CFU/ml,"[1]; acidic pH 3.47 to 3.54, air 2.5 L/min, 40 min",≧4.81 log10 CFU/ml
same,Mean log10 reduction in CFU/ml,"[1]; acidic pH 3.47 to 3.54, air 2.5 L/min, 50 min",≧5.34 log10 CFU/ml
same,Mean log10 reduction in CFU/ml,"[1]; acidic pH 3.47 to 3.54, air 2.5 L/min, 50 min, listed as hydrogen peroxide",greater than 5 log10 CFU/ml
same,Mean log10 reduction in CFU/ml,"[1]; acidic pH 3.47 to 3.54, air 2.5 L/min, 60 min",≧5.34 log10 CFU/ml
same,Mean log10 reduction in CFU/ml,"[1]; acidic pH 3.47 to 3.54, no air, 10 min",2.30 log10 CFU/ml
same,Mean log10 reduction in CFU/ml,"[1]; acidic pH 3.47 to 3.54, no air, 20 min",2.76 log10 CFU/ml
same,Mean log10 reduction in CFU/ml,"[1]; acidic pH 3.47 to 3.54, no air, 30 min",3.71 log10 CFU/ml
same,Mean log10 reduction in CFU/ml,"[1]; acidic pH 3.47 to 3.54, no air, 40 min",3.88 log10 CFU/ml
same,Mean log10 reduction in CFU/ml,"[1]; acidic pH 3.47 to 3.54, no air, 50 min",4.52 log10 CFU/ml
same,Mean log10 reduction in CFU/ml,"[1]; acidic pH 3.47 to 3.54, no air, 60 min",4.83 log10 CFU/ml
same,Mean log10 reduction in CFU/ml,"[1]; room temperature, not buffered, air 2.5 L/min, 10 min",0.49 log10 CFU/ml
same,Mean log10 reduction in CFU/ml,"[1]; room temperature, not buffered, air 2.5 L/min, 20 min",0.70 log10 CFU/ml
same,Mean log10 reduction in CFU/ml,"[1]; room temperature, not buffered, air 2.5 L/min, 30 min",0.70 log10 CFU/ml
same,Mean log10 reduction in CFU/ml,"[1]; room temperature, not buffered, air 2.5 L/min, 40 min",0.80 log10 CFU/ml
same,Mean log10 reduction in CFU/ml,"[1]; room temperature, not buffered, air 2.5 L/min, 50 min",0.81 log10 CFU/ml
same,Mean log10 reduction in CFU/ml,"[1]; room temperature, not buffered, air 2.5 L/min, 60 min",0.63 log10 CFU/ml
same,Mean log10 reduction in CFU/ml,"[1]; room temperature, not buffered, no air, 10 min",0.58 log10 CFU/ml
same,Mean log10 reduction in CFU/ml,"[1]; room temperature, not buffered, no air, 20 min",1.00 log10 CFU/ml
same,Mean log10 reduction in CFU/ml,"[1]; room temperature, not buffered, no air, 30 min",1.00 log10 CFU/ml
same,Mean log10 reduction in CFU/ml,"[1]; room temperature, not buffered, no air, 40 min",1.00 log10 CFU/ml
same,Mean log10 reduction in CFU/ml,"[1]; room temperature, not buffered, no air, 50 min",1.02 log10 CFU/ml
same,Mean log10 reduction in CFU/ml,"[1]; room temperature, not buffered, no air, 60 min",1.12 log10 CFU/ml
same,log reduction,"[2]; air, 20 min",3.13 log
same,log reduction,"[2]; air, 40 min",3.41 log
same,log reduction,"[2]; no air, 50 min",3.90 log
same,Mean log10 reduction in CFU/ml,"[2]; air 2.5 L/min, 10 min",1.37 log10 CFU/ml
same,Mean log10 reduction in CFU/ml,"[2]; air 2.5 L/min, 20 min",1.46 log10 CFU/ml
same,Mean log10 reduction in CFU/ml,"[2]; air 2.5 L/min, 30 min",1.71 log10 CFU/ml
same,Mean log10 reduction in CFU/ml,"[2]; air 2.5 L/min, 40 min",1.61 log10 CFU/ml
same,Mean log10 reduction in CFU/ml,"[2]; air 2.5 L/min, 50 min",1.75 log10 CFU/ml
same,Mean log10 reduction in CFU/ml,"[2]; air 2.5 L/min, 60 min",1.90 log10 CFU/ml
same,Mean log10 reduction in CFU/ml,"[2]; no air, 10 min",1.08 log10 CFU/ml
same,Mean log10 reduction in CFU/ml,"[2]; no air, 20 min",1.49 log10 CFU/ml
same,Mean log10 reduction in CFU/ml,"[2]; no air, 30 min",1.69 log10 CFU/ml
same,Mean log10 reduction in CFU/ml,"[2]; no air, 40 min",1.79 log10 CFU/ml
same,Mean log10 reduction in CFU/ml,"[2]; no air, 50 min",1.92 log10 CFU/ml
same,Mean log10 reduction in CFU/ml,"[2]; no air, 60 min",1.85 log10 CFU/ml
